Data as given in patent US6599924B1, “2-hetaryl-3,4-dihydro-2H-pyrrole derivatives” (Bayer Aktiengesellschaft, priority 1998, dated 2003).

Legend:
[1] = log P determination
[2] = physchem; settings: pH 7.5
[3] = not given; remark: listed apart in the source

Molecule | logP ([1]; pH 2.3) | other results
1-dimethylamino-5-phenylpyrrolidone-2 [G (I′-678)] |  | logp (pH=7.5): 1.52
FC(F)(F)Oc1ccc(-c2ccc(C3CCC(c4cccs4)=N3)cc2)cc1 (stereo not shown) [Example I-7] | 2.45 | 
FC(F)(F)Oc1ccc(-c2ccc(C3CCC(c4ccc(Cl)s4)=N3)cc2)cc1 (stereo not shown) [Example I-148] | 4.21 | 
FC(F)(F)Oc1ccc(-c2ccc(C3CCC(c4sccc4Cl)=N3)cc2)cc1 (stereo not shown) [Example I-195] | 4.67 | 
FC(F)(F)Oc1ccc(-c2ccc(C3CCC(c4ncccc4C(F)(F)F)=N3)cc2)cc1 (stereo not shown) [Example I-336] | 5.06 | 
FC(F)(F)Oc1ccc(-c2ccc(C3CCC(c4ccsc4)=N3)cc2)cc1 (stereo not shown) [Example I-430] | 2.44 | 
FC(F)(F)Oc1ccc(-c2ccc(C3CCC(c4ccc(Br)s4)=N3)cc2)cc1 (stereo not shown) [Example I-618] | 4.73 | 
c1ccc(C2CCC(c3cccnc3)=N2)cc1 (stereo not shown) [Example I-678] |  | logP [2]: 2.01
Oc1ccc(C2CCC(c3sccc3Cl)=N2)cc1 (stereo not shown) [Example I-706, 2-(5-(4-Hydroxyphenyl)-Δ^2-pyrrolin-2-yl)-3-chlorothiophene] |  | melting point [3]: 146 °C
C=CCOc1ccc(C2CCC(c3sccc3Cl)=N2)cc1 (stereo not shown) [Example I-707] |  | logP [1]: 2.29
FC(F)(F)Oc1ccc(Oc2ccc(C3CCC(c4sccc4Cl)=N3)cc2)cc1 (stereo not shown) [Example I-708, 2-(5-(4-Trifluoromethoxyphenoxy-phenyl)-Δ^2-pyrrolin-2-yl)-3-chlorothiophene] | 4.5 | 
FC(F)(F)Oc1ccc(Oc2ccc(C3CCC(c4sccc4Cl)=N3)cc2)cc1 (stereo not shown) [Example I-710] |  | logP [1]: 4.5
CC(C)(C)c1ccc(COc2ccc(C3CCC(c4sccc4Cl)=N3)cc2)cc1 (stereo not shown) [Example I-718, 3-Chloro-2-[5-(4-(4-tert-butylbenzyloxy)-phenyl)-Δ^2-pyrrolin-2-yl]-thiophene] |  | melting point [3]: 102 °C
C#CCOc1ccc(C2CCC(c3sccc3Cl)=N2)cc1 (stereo not shown) [Example I-720] |  | logP [1]: 1.97
Fc1ccsc1C1=NC(c2ccc(-c3ccc(OC(F)(F)F)cc3)cc2)CC1 (stereo not shown) [Example I-868, 5-(3-fluorothien-2-yl)-3,4-dihydro-2-[4′-trifluoromethoxy]-[1,1′-biphenyl]-4-yl-2H-pyrrole] | 3.18 | 
CC(C)(C)OC(=O)NC(CCC(=O)c1sccc1F)c1ccc(-c2ccc(OC(F)(F)F)cc2)cc1 (stereo not shown) [II-868] | 5.05 | 
